Data: publication PMC5597121, “The human bitter taste receptor T2R38 is broadly tuned for bacterial compounds” (PLoS ONE, 2017)
Positions count from the first letter of the chain named. pEC50: −log10 of the molar value. “And” between values parts separate entries of the source, which are not always exact repeats. Identical values can stand only once. “Also recorded” adds a separate entry of the source. Positions of bridges follow the written chain, without caps; N, C: chain ends. Residues, ends and D or L forms follow the SMILES beside them.

Key:
T2R38 = target: T1, T2R38 (Homo sapiens, UniProt P59533, A49P/I296V); experiment: Single cell calcium imaging, Peakrapid cells (Gα16gustducin44) transiently transfected with T2R38; type: cell-based; settings: for Emax (% of positive control): percentage of the response elicited by 0.1 mM PTC; for response of T2R38 PAV transfected cells (S7_fig raw data): individual values of experiments 1-5; for pEC50: concentration-response curve, read-out: EC50; for logEC50: given in the concentration-response curve
T1 construct: leader: first 45 amino acids of rat somatostatin receptor subtype 3 (SSTR3) (N); expressed in transfected cells; host or cells: Peakrapid cells (HEK293 derivative, ATCC CRL-2828) stably expressing Galpha16gustducin44, co-transfected with human RTP4
T1 sequence (P59533 1-333 A49P/I296V): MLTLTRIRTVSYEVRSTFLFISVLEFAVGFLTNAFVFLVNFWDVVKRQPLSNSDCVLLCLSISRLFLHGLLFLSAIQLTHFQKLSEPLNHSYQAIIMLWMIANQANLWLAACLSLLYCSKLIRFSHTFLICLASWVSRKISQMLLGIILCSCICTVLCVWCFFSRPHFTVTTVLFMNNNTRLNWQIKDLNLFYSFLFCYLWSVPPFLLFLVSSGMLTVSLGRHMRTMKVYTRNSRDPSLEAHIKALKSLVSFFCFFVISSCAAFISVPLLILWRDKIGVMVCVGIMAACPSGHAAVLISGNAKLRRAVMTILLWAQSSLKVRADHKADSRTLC
Source text: (§1) The coding sequences of either the functional (PAV, GenBank accession number AY258597.1) and non-functional (AVI, GenBank accession number AF494231.1) were amplified from human genomic DNA by polymerase chain reaction.
These coding sequences were cloned in a pEFIB backbone vector in translational fusion with the coding sequence of a leader sequence corresponding to the 45 first amino acids of the rat somatostatin receptor subtype 3 [20]. The constructs were verified by sequencing. The coding sequence of RTP4 (Genbank accession number AY562238.1) was amplified from human spleen cDNA and cloned a pCI backbone vector.
The Gα16gustducin44 sequence was generated by swapping the last 132 nucleotides of the G α16 with the corresponding terminal sequence of the Gα-gustducin [21] and was cloned in a pIRES-Puro plasmid. This vector was transfected in the Peakrapid cell line (ATCC reference: CRL-2828™; purchased from LGC Standards SARL, Molsheim, FRANCE), HEK293 cell line derivative, cultured in EMEM culture medium (reference BE12-136F; Lonza, Vervier, BELGIUM) supplemented with 10% of foetal bovine serum (Sigma-Aldrich, Bornem, Belgium) and 1 μg/ml of Puromycin to allow the selection of recombinant cell populations. Cell clones expressing the Gα16gustducin44 were selected and the clone presenting the best functional response of T2R38 to phenylthicarbamide was used for the study (see below).
(§2) The Peakrapid cell line expressing stably a chimeric Gα16gustducin44 G protein [21] was used. 40 000 cells were seeded in each well of a black/clear poly-D-lysine cellware pre-coated 96-well plate (Biocoat®, Becton-Dickinson, Erembodegem, Belgium) and transiently transfected with 50 ng of plasmid DNA containing the receptor sequence or not (empty vector) and with 50 ng of chaperone protein RTP4 per well. Forty hours after transfection, cells were incubated with the calcium-sensitive dye Fluo4 (Life Technologies, Oregon, USA) solubilized at 10 μg/ml in a buffer containing EMEM (150 mM NaCl, 5 mM KCl, 2 mM CaCl2, 1.2 mM MgCl2, 10 mM glucose), 10 mM HEPES, 0.01% (v/v) Pluronic F127, 0.1% (w/v) bovine serum albumin. After 1 h incubation at 37°C, cells were rinsed twice with the same buffer without Fluo4 and left in 50 μl buffer (prior ligand injection). Measurement were performed on a platform based on a motorized Axiobserver Z1 fluorescence microscope piloted by a Axiovision software (Zeiss, Jena, Germany) as described previously. For each selected well, images were taken 1 per second, during 30 seconds. 50 μl of the buffer containing the ligand twice concentrated was injected on the 2nd second of the time lapse record.
After time lapse record, the number of responding cells in each injected well was determined using ImageJ 1.34 (Rasband, W.S., ImageJ, National Institutes of Health, Bethesda, Maryland, USA, http://rsb.info.nih.gov/ij/1997-2004), and expressed as the percentage of the surface of a microscope field covered by activated cells with respect to the total surface of the field covered by confluent cells. Automated determination of the surface occupied by responding cells is easier to perform than a cell counting. The resulting percentage of positive surface provided a convenient estimation of the percentage of responding cells, as observed by comparing the percentage of positive surface and percentage of responsive cells determined by direct counting, in the same experiment. In agreement with the literature, the percentage of responding cells was proportional to the agonist concentration. During experiment in each plate, at least 2 wells were tested with phenylthiocarbamide (PTC) at 0.1 mM, which is one of the best characterized agonist of T2R38 in the literature. The activation of T2R38 by PTC allows normalization of the result of other tested molecules. The results were thus expressed as the percentage of PTC activation. […]

[1] = Solubility in aqueous / buffer solution; type: physicochemical
Procedure: 32 volatile metabolites of pathogens (S1 Fig) were selected from the literature. All compounds were dissolved in buffer solution, except C4HSL dissolved in buffer solution, DMSO or ethanol, C12HSL dissolved in DMSO or ethanol, and Agr D1 thiolactone dissolved in DMSO.

T2R38 AVI = target: T2, T2R38 AVI (Homo sapiens, UniProt P59533, A262V); experiment: Single cell calcium imaging, control: cells transfected with nonfunctional allele (AVI) of T2R38; type: cell-based; settings: for response of T2R38 AVI transfected cells (S7_fig raw data): individual values of experiments 1-5
T2 construct: leader: first 45 amino acids of rat somatostatin receptor subtype 3 (SSTR3) (N); expressed in transfected cells; host or cells: Peakrapid cells (HEK293 derivative, ATCC CRL-2828) stably expressing Galpha16gustducin44, co-transfected with human RTP4
T2 sequence (P59533 1-333 A262V): T1 sequence (P59533 1-333 A49P/I296V) with P49A, A262V, V296I
Procedure: as §1, §2
(§3) After time lapse record, the number of responding cells in each injected well was determined using ImageJ 1.34 (Rasband, W.S., ImageJ, National Institutes of Health, Bethesda, Maryland, USA, http://rsb.info.nih.gov/ij/1997-2004), and expressed as the percentage of the surface of a microscope field covered by activated cells with respect to the total surface of the field covered by confluent cells. Automated determination of the surface occupied by responding cells is easier to perform than a cell counting. The resulting percentage of positive surface provided a convenient estimation of the percentage of responding cells, as observed by comparing the percentage of positive surface and percentage of responsive cells determined by direct counting, in the same experiment. In agreement with the literature, the percentage of responding cells was proportional to the agonist concentration. During experiment in each plate, at least 2 wells were tested with phenylthiocarbamide (PTC) at 0.1 mM, which is one of the best characterized agonist of T2R38 in the literature. The activation of T2R38 by PTC allows normalization of the result of other tested molecules. The results were thus expressed as the percentage of PTC activation. In scaling calcium imaging assays using this latter receptor, concentration-responses curves were performed and data were fitted to a four parameter logistic equation: y=min+ (max− min)/1+10 ^(logEC50−x)nH . Min and max are the minimum and the maximum values of the percentage of cell-activated surface respectively, y is the percentage of cell-activated surface at the x concentration and nH is the Hill coefficient.

[2] = system: mock transfected cells (empty vector); experiment: Single cell calcium imaging, control: mock transfected (empty vector) Peakrapid cells; type: cell-based, human
Procedure: as §2, §3

## CC[C@H](C)[C@@H]1NC(=O)[C@H](Cc2ccccc2)NC(=O)[C@H](CC(=O)O)NC(=O)[C@@H](NC(=O)[C@@H](NC(=O)[C@H](CO)NC(=O)[C@@H](N)Cc2ccc(O)cc2)[C@@H](C)O)CSC(=O)[C@H](CCSC)NC1=O [Agr D1 thiolactone] (H-YSTCDFIM; thioester 4-C; N-terminus assumed)
T2R38
  agonist activity on T2R38 (in words): inactive
T2R38; 0.1 mM solubilized in 0.3% DMSO
  specific activation of T2R38: did not show specific activation; also recorded: did not activate T2R38
[1]
  solubility: not soluble in aqueous solution

## C[S+](C)[O-] [DMSO, dimethylsulfoxide]
T2R38
  agonist activity on T2R38 (in words): activated T2R38
  Emax (% of positive control): 88 % of positive control
T2R38; DMSO 0.0208957 M
  percentage of surface covered by activated cells: 0.32% and 1.00% and 0.12% and 3.02% and 1.04% and 0.84%
T2R38; DMSO 0.0505834 M
  percentage of surface covered by activated cells: 0.62% and 1.17% and 1.07% and 2.06% and 2.44%
T2R38; DMSO 0.0660305 M
  percentage of surface covered by activated cells: 0.58% and 2.76% and 4.06% and 1.23% and 6.36% and 2.08%
T2R38; DMSO 0.15%
  percentage of surface covered by activated cells: 0.58% and 0.91% and 0.69% and 1.00%
T2R38; DMSO 0.3%
  percentage of surface covered by activated cells: 0.69% and 0.46%
T2R38; DMSO 1.5%
  percentage of surface covered by activated cells: 4.39% and 7.39% and 7.25% and 2.49% and 4.85% and 7.28%
T2R38; DMSO 1.5% (209 mM) alone
  T2R38-dependent calcium response: induced a T2R38-dependent calcium response of the same intensity; also recorded: activates specifically T2R38
T2R38 AVI
  effect on the non-functional haplotype of T2R38 (AVI): absence of effect
[2]; DMSO 0.0208957 M
  percentage of surface covered by activated cells: 0.0457% and 0.0545% and 0.10%
[2]; DMSO 0.0505834 M
  percentage of surface covered by activated cells: 0.62% and 0.46% and 0.98%
[2]; DMSO 0.0660305 M
  percentage of surface covered by activated cells: 1.05% and 0.28% and 0.79%
[2]; DMSO 0.113804 M
  percentage of surface covered by activated cells: 0.19% and 0.57% and 0.37%
[2]; DMSO 0.15%
  percentage of surface covered by activated cells: 0.20% and 0.05%
[2]; DMSO 0.161577 M
  percentage of surface covered by activated cells: 0.48% and 0.22% and 0.50%
[2]; DMSO 0.208656 M
  percentage of surface covered by activated cells: 1.44% and 1.21% and 1.20%
[2]; DMSO 0.283773 M
  percentage of surface covered by activated cells: 0.60% and 5.54% and 2.61%
[2]; DMSO 0.3%
  percentage of surface covered by activated cells: 0.01%
[2]; DMSO 0.388101 M
  percentage of surface covered by activated cells: 0.89% and 2.18% and 2.66%
[2]; DMSO 0.417313 M
  percentage of surface covered by activated cells: 2.52% and 1.37% and 1.55%
[2]; DMSO 1.5%
  percentage of surface covered by activated cells: 1.51% and 0.51% and 0.83% and 0.76% and 0.97% and 0.34%

## CC(C)=O [acetone]
T2R38
  agonist activity on T2R38 (in words): able to specifically trigger this receptor
  response of T2R38 PAV transfected cells (S7_fig raw data): 16% and 18% and 21% and 22% and 7% and 15%
  pEC50: 1.22
  logEC50: -1.22
  Emax (% of positive control): 67 % of positive control
T2R38; acetone 0.0035, log10[ ] -2.45
  percentage of surface covered by activated cells: 0.29% and 0.16% and 0.35%
T2R38; acetone 0.011, log10[ ] -1.95
  percentage of surface covered by activated cells: 1.02% and 0.77% and 0.78% and 0.46% and 1.17% and 0.98%
T2R38; acetone 0.035, log10[ ] -1.45
  percentage of surface covered by activated cells: 0.69% and 0.81% and 7.95% and 5.59% and 2.13% and 2.80%
T2R38; acetone 0.066, log10[ ] -1.18
  percentage of surface covered by activated cells: 2.66% and 2.94% and 6.89% and 9.70%
T2R38 AVI
  response of T2R38 AVI transfected cells (S7_fig raw data): 0.559% and 1.33% and 0.331% and 0.695% and 0.444% and 0.829%
[2]; acetone 0.0035, log10[ ] -2.45
  percentage of surface covered by activated cells: 1.26% and 0.40% and 0.58%
[2]; acetone 0.011, log10[ ] -1.95
  percentage of surface covered by activated cells: 0.32% and 0.08% and 0.49% and 0.06%
[2]; acetone 0.035, log10[ ] -1.45
  percentage of surface covered by activated cells: 0.26% and 0.42% and 1.02% and 0.10%
[2]; acetone 0.066, log10[ ] -1.18
  percentage of surface covered by activated cells: 1.43% and 0.30% and 0.70%
[2]; acetone 0.114, log10[ ] -0.94
  percentage of surface covered by activated cells: 0.76% and 0.05% and 0.38% and 0.11%
[2]; acetone 0.162, log10[ ] -0.79
  percentage of surface covered by activated cells: 1.04% and 0.22% and 0.73% and 0.01%
[2]; acetone 0.185, log10[ ] -0.73
  percentage of surface covered by activated cells: 0.0454% and 0.0283% and 0.02%

## CS [methylmercaptan]
T2R38
  agonist activity on T2R38 (in words): able to specifically trigger this receptor
  pEC50: 2.10
  logEC50: -2.07
  Emax (% of positive control): 31 % of positive control
T2R38; listed as méthylmercaptan
  response of T2R38 PAV transfected cells (S7_fig raw data): 3.25% and 3.44% and 8% and 6% and 6.36% and 5% and 1.09% and 2.8% and 3.57% and 1.72% and 3% and 1.56% and 5.64% and 4.55%
T2R38; méthylmercaptan 0.000630957, log10[ ] -3.2
  percentage of surface covered by activated cells: 0.11% and 0.07% and 0.29% and 0.31% and 0.27% and 0.54% and 0.96% and 0.62%
T2R38; méthylmercaptan 0.00439285, log10[ ] -2.35725
  percentage of surface covered by activated cells: 0.81% and 0.87% and 0.46% and 0.37% and 1.33% and 0.26% and 1.05% and 0.97%
T2R38 AVI; listed as méthylmercaptan
  response of T2R38 AVI transfected cells (S7_fig raw data): 0.549% and 0.185% and 0.235% and 0.0265% and 0.511% and 0.151% and 0.286% and 0.362% and 1.77% and 0.619% and 1.26% and 0.598% and 0.172% and 0.165%
[2]; méthylmercaptan 0.0075, log10[ ] -2.12494
  percentage of surface covered by activated cells: 0.35% and 0.33% and 0.26% and 0.19% and 1.74% and 0.81% and 0.76%
[2]; méthylmercaptan 0.01, log10[ ] -2
  percentage of surface covered by activated cells: 0.36% and 0.09% and 0.12% and 0.53% and 2.03% and 0.10% and 0.15% and 0.34%
